In US20250019368A1, “COMPOUND AND PRODUCTION METHOD THEREOF, POLYMERIZABLE COMPOSITION, RESIN COMPOSITION, POLYMER, CURED SUBSTANCE, AND LAMINATE” (FUJIFILM Corporation, priority 2022, published 2025):

What was measured:
Format in all cases: physicochemical
[1] = Absorption spectrum of the compound in chloroform solution (spectral characteristics); conditions: 5×10^−6 mol/L, 1 cm cell; for ε (molar absorption coefficient): at λmax
Protocol: An absorption spectrum of each of the compounds of Examples 1 to 3 and Comparative Examples 1 to 3 was measured according to the following procedure, and the maximal absorption wavelength ([…]), the molar absorption coefficient ([…]), and the width of the absorption spectrum at an absorbance corresponding to ½ of the maximum absorbance (that is, the half-width) were obtained.
Using chloroform as a solvent, a solution in which the compound was dissolved was prepared such that the concentration of the compound in the chloroform was 5×10^−6 mol/L (liter; the same applies hereinafter). Each prepared solution was put into a 1 cm cell, and an absorption spectrum was measured using a spectrophotometer [product name: U-4100, manufactured by Hitachi, Ltd.] as a measurement device.

[2] = Solubility in ethyl acetate, visual check for undissolved residue; conditions: 20.0 mg in 2 mL ethyl acetate, stirred at 40° C. for 10 minutes; no residue means solubility 1% by mass or more
Protocol: The solubility of each compound of Examples 1 to 3 and Comparative Examples 1 to 3 in an organic solvent was measured according to the following procedure.
20.0 mg of the compound was weighed and placed in a container, 2 mL of ethyl acetate was added thereto, and the mixture was stirred at 40° C. for 10 minutes. After the stirring, the presence or absence of undissolved residue of the compound was visually observed. The fact that no undissolved residue of the compound was observed means that the solubility of the compound was 1% by mass or more.

[3] = Solubility in the organic solvents of the polymerizable composition; conditions: solvent (1) propylene glycol monomethyl ether acetate and solvent (2) cyclohexanone, polymerizable composition P4
Excerpt: A polymerizable composition P4 was obtained in the same manner as in the preparation of the polymerizable composition P1, except that, in the preparation of the polymerizable composition P1, the “exemplary compound 1-13” was changed to the “comparative compound R-3”.
A cured film E4 was obtained in the same manner as in the production of the cured film E1, except that, in the production of the cured film E1, the “polymerizable composition P1” was changed to the “polymerizable composition P4”. However, since the “comparative compound R-3” had extremely low solubility in the organic solvent [that is, the solvent (1) and the solvent (2)], the obtained photocured film D4 and cured film E4 were not films that could be evaluated for the spectral characteristics, so that the following evaluation tests were not performed.

Compound | Half-width (width of absorption spectrum at ½ of maximum absorbance) [1] [nm] | λmax (maximal absorption wavelength) [1] [nm] | ε (molar absorption coefficient) [1] | Solubility in ethyl acetate (presence or absence of undissolved residue) [2] | Solubility in the organic solvent [3]
C=C(C)C(=O)OCCOC(=O)C1=C(C)/C(=C2\C(=O)C(c3[nH]c(C)c(CC)c3C)=C2O)N=C1C [Exemplary compound 1-13] | 25 | 556 | 185,000 L/(mol · cm) | completely dissolved | 
C=Cc1ccc(Cn2c(C)c(CC)c(C)c2C2=C([O-])/C(=C3/C(C)=C(CC)C(C)=[N+]3Cc3ccc(C=C)cc3)C2=O)cc1 [Exemplary compound 1-30] | 29 | 591 | 158,000 L/(mol · cm) | completely dissolved | 

Other lines, results leading:

Half-width (width of absorption spectrum at ½ of maximum absorbance) [1] [nm] | λmax (maximal absorption wavelength) [1] [nm] | ε (molar absorption coefficient) [1] | Solubility in ethyl acetate (presence or absence of undissolved residue) [2] | Solubility in the organic solvent [3] | Compound
23 | 564 | 238,000 L/(mol · cm) | not completely dissolved |  | CCC1=C(C)/C(=C2\C(=O)C(c3[nH]c(C)c(CC)c3C)=C2O)N=C1C [R-1]
27 | 667 | 363,000 L/(mol · cm) | not completely dissolved |  | C=C(C)C(=O)OCCN(CCOC(=O)C(=C)C)c1ccc(C2=C([O-])/C(=C3\C=CC(=[N+](CCOC(=O)C(=C)C)CCOC(=O)C(=C)C)C=C3NC(C)=O)C2=O)c(NC(C)=O)c1 [R-2]
27 | 676 | 356,000 L/(mol · cm) | not completely dissolved | extremely low | CCN(CC)c1ccc(C2=C([O-])/C(=C3\C=CC(=[N+](CC)CC)C=C3NC(C)=O)C2=O)c(NC(C)=O)c1 [R-3]
